Values joined by “and” are separate entries in the source; they are usually repeats but may differ in a detail not shown here. Equal entries are not always repeated.
What follows are molecules tested against T1, c-MET (purified GST fusion protein containing the Met kinase domain) (Homo sapiens, UniProt P08581) (assay: Met transphosphorylation assay (ELISA, poly(Glu,Tyr) 4:1 substrate)). Conditions: purified GST-Met kinase domain 10 ng/well.
T1 construct: Purified GST fusion protein containing the Met kinase domain, Sugen, Inc
T1 sequence (P08581 1078-1345 limits assumed): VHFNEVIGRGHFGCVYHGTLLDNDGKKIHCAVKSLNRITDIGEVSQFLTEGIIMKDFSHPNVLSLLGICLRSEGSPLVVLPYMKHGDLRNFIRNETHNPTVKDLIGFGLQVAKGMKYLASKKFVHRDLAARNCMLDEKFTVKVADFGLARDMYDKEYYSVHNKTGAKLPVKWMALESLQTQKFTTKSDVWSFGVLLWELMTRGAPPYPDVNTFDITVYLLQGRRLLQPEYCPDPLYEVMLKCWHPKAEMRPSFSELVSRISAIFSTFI
Assay type: biochemical
Description: Met Transphosphorylation Assay
This assay is used to measure phosphotyrosine levels on a poly(glutamic acid:tyrosine (4:1)) substrate as a means for identifying agonists/antagonists of met transphosphorylation of the substrate.
• 1. […] PBS, Gibco Catalog #450-1300EB • 4. 50 mM HEPES • 5. […] Purified GST fusion protein containing the Met kinase domain, Sugen, Inc. • 7. TBST Buffer. • 8. 10% aqueous (MilliQue H2O) DMSO. • 9. […] 2× Kinase Dilution Buffer: for 100 ml, mix 10 mL 1 M HEPES at pH 7.5 with 0.4 mL 5% BSA/PBS, 0.2 mL 0.1 M sodium orthovanadate and 1 mL 5M sodium chloride in 88.4 mL dH2O. • 11. 4× ATP Reaction Mixture: for 10 mL, mix 0.4 mL 1 M manganese chloride and 0.02 mL 0.1 M ATP in 9.56 mL dH2O. • 12. 4× Negative Controls Mixture: for 10 mL, mix 0.4 mL 1 M manganese chloride in 9.6 mL dH2O. • 13. […] 500 mM EDTA. • 15. Antibody Dilution Buffer: for 100 mL, mix 10 mL 5% BSA/PBS, 0.5 mL 5% Camation Instant Milk® in PBS and 0.1 mL 0.1 M sodium orthovanadate in 88.4 mL TBST. • 16. Rabbit polyclonal antophosphotyrosine antibody, Sugen, Inc. • 17. Goat anti-rabbit horseradish peroxidase conjugated antibody, Biosource, Inc. • 18. ABTS Solution: for 1 L, mix 19.21 g citric acid, 35.49 g Na2HPO4 and 500 mg ABTS with sufficient dH2O to make 1 L. • 19. ABTS/H2O2: mix 15 mL ABST solution with 2ILL H2O2 five minutes before use. • 20. 0.2 M HCl Procedure: • 1. Coat ELISA plates with 2 μg Poly(Glu-Tyr) in 100 pL PBS, store overnight at 4° C. • 2. Block plate with 150 μL of 5% BSA/PBS for 60 min. • 3. Wash plate twice with PBS, once with 50 mM Hepes buffer pH 7.4. • 4. Add 50 μl of the diluted kinase to all wells. (Purified kinase is diluted with Kinase Dilution Buffer. Final concentration should be 10 ng/well.) • 5. Add 25 μL of the test compound (in 4% DMSO) or DMSO alone (4% in dH2O) for controls to plate. • 6. Incubate the kinase/compound mixture for 15 minutes. • 7. Add 25 μL of 40 mM MnCl2to the negative control wells. • 8. Add 25 μL ATP/MnCl2 mixture to the all other wells (except the negative controls). Incubate for 5 min. • 9. Add 25 μL 500 mM EDTA to stop reaction. • 10. Wash plate 3× with TBST. 11. Add 100 μL rabbit polyclonal anti-Ptyr diluted 1:10,000 in Antibody Dilution Buffer to each well. Incubate, with shaking, at room temperature for one hour. • 12. Wash plate 3× with TBST. • 13. […] Add 100 μL per well and incubate at room temperature, with shaking, for one hour. • 14. Wash plate 1× with PBS. • 15. Add 100 μl of ABTS/H2O2 solution to each well. • 16. If necessary, stop the development reaction with the addition of 100 μl of 0.2M HCl per well. • 17.
Work on `Oc1ccc(Cn2cnc3ncc(-c4cccs4)nc32)cc1` [Example 1, 4-(6-Thiophen-2-yl-imidazo[4,5-b]pyrazin-1-ylmethyl)-phenol] yielded an IC50 of 150 nM. `COc1ccc(Cn2cnc3ncc(-c4ccc(F)cc4)nc32)cc1` [Example 2, 6-(4-Fluoro-phenyl)-1-(4-methoxy-benzyl)-1H-imidazo[4,5-b]pyrazine] gave an IC50 of 1790 nM. `Fc1ccc(Cn2cnc3ncc(-c4cccs4)nc32)cc1` [Example 4, 1-(4-Fluoro-benzyl)-6-thiophen-2-yl-1 H-imidazo[4,5-b]pyrazine] was tested, and the IC50 was > 20000 nM. For `Fc1ccc(Cn2cnc3ncc(-c4ccc(F)cc4)nc32)cc1` [Example 5, 1-(4-Fluoro-benzyl)-6-(4-fluoro-phenyl)-1H-imidazo[4,5-b]pyrazine], the IC50 was > 20000 nM. `Fc1ccc(Cn2cnc3ncc(-c4cccc(OCCN5CCOCC5)c4)nc32)cc1` [Example 6, 1-(4-Fluoro-benzyl)-6-[3-(2-morpholin-4-yl-ethoxy)-phenyl]-1H-imidazo[4,5-b]pyrazine] was tested, and the IC50 was > 20000 nM. For `Fc1ccc(Cn2cnc3ncc(-c4ccc(OCCN5CCOCC5)cc4)nc32)cc1` [Example 7, 1-(4-Fluoro-benzyl)-6-[4-(2-morpholin-4-yl-ethoxy)-phenyl]-1H-imidazo[4,5-b]pyrazine], the IC50 was > 20000 nM. For `Fc1ccc(Cn2nnc3ncc(Br)nc32)cc1` [Example 8, 6-Bromo-1-(4-fluoro-benzyl)-1H-[1,2,3]triazolo[4,5-b]pyrazine], the IC50 was 310 nM and 1710 nM. `Fc1ccc(Cn2nnc3ncc(-c4cccs4)nc32)cc1` [Example 9, 1-(4-Fluoro-benzyl)-6-thiophen-2-yl-1H-[1,2,3]triazolo[4,5-b]pyrazine] was tested, and the IC50 was 160 nM. In the case of `Fc1ccc(Cn2nnc3ncc(-c4cccc(OCCN5CCOCC5)c4)nc32)cc1` [Example 10, 1-(4-Fluoro-benzyl)-6-[3-(2-morpholin-4-yl-ethoxy)-phenyl]-1H-[1,2,3]triazolo[4,5-b]pyrazine], the IC50 is reported as 1000 nM. `Fc1ccc(Cn2nnc3ncc(-c4ccc(OCCN5CCOCC5)cc4)nc32)cc1` [Example 11, 1-(4-Fluoro-benzyl)-6-[4-(2-morpholin-4-yl-ethoxy)-phenyl]-1H-[1,2,3]triazolo[4,5-b]pyrazine] gave an IC50 of 170 nM. For `Fc1ccc(Cn2nnc3ncc(-c4cc5ccccc5[nH]4)nc32)cc1` [Example 12, 1-(4-Fluoro-benzyl)-6-(1H-indol-2-yl)-1H-[1,2,3]triazolo[4,5-b]pyrazine], the IC50 was 1150 nM. `COc1ccc(Cn2cnc3ncc(Br)cc32)cc1` [Example 13, 6-Bromo-1-(4-methoxy-benzyl)-1H-imidazo[4,5-b]pyridine] was tested, and the IC50 was > 20000 nM. For `Oc1ccc(Cn2cnc3ncc(Br)cc32)cc1` [Example 14, 4-(6-Bromo-imidazo[4,5-b]pyridin-1-ylmethyl)-phenol], the IC50 was 9600 nM.
